{"source": "patent US20110288154A1", "about": "“RNA Interference Mediated Inhibition of Epithelial Sodium Channel (ENaC) Gene Expression Using Short Interfering Nucleic Acid (siNA)” (MERCK & CO., INC., priority 2008, published 2011)", "system": "mSCNN1A mRNA", "test": "Screening of ENaCα siNAs in mouse NIH 3T3 cells (quantitative RT-PCR)", "format": "cell-based", "set-up": "Percent Reduction of the mSCNN1A mRNA relative to a non-targeting control siNA / Mouse % KD (efficacy of ENaCα mRNA knockdown): concentration or dose not given beside the values", "settings": "for Mean (mSCNN1A expression normalized to the level of m36B4) / Percent Reduction of the mSCNN1A mRNA relative to a non-targeting control siNA / Avg ENaCα Expression (mSCNN1A) / Avg 36B4 Expression: mouse NIH 3T3 cells, n = 3; for Mean (mSCNN1A expression normalized to the level of m36B4) / Percent Reduction of the mSCNN1A mRNA relative to a non-targeting control siNA / Avg 36B4 Expression: 24 hours post-transfection; for Avg ENaCα Expression (mSCNN1A): harvested 24 hours post-transfection; for Avg 36B4 Expression: housekeeping gene used for normalisation", "procedure": "siNA constructs (Table 1b) may be tested for efficacy in reducing ENaC RNA expression in, for example, A549 human lung carcinoma cells. A549 (human; ATCC cat# CCL-185) cells were cultured at 37° C. in the presence of 5% CO2 and grown in Ham's F12K medium with 2 mM L-glutamine adjusted to contain 1.5 g/L sodium bicarbonate and supplemented with fetal bovine serum at a final concentration of 10% and 100 U/mL penicillin. The A549 cells were plated approximately 24 hours before transfection in 96-well plates at 7,500 cells/well, 100 μl/well. After 24 hours complexes containing siNA and Lipofectamine 2000 (Invitrogen) were created as follows: a solution of Lipofectamine 2000 in OPTI-MEM was prepared containing Lipofectamine 2000 at a final concentration of 14 μg/ml. In parallel, solutions of the siNAs were prepared in OPTI-MEM at a final concentration of 150 nM. After both solutions were incubated at 20° C. for 20 minutes an equal volume of the siNA solutions and the Lipofectamine 2000 solution were added together for each of the siNAs. The resultant solution has the siNAs at a final concentration of 75 nM and Lipofectamine 2000 at a final concentration of 7 μg/ml. This solution was incubated at 20° C. for 20 minutes. After incubation 50 μl of the solution were added to each of the wells (in triplicate). The final concentration of siNA in each well was 25 nM and the final concentration of Lipofectamine 2000 in each well was 2.33 μg/ml. The plates were incubated for 48 hours with no change of media before harvesting. Dose response curves were determined in a similar manner with each concentration being done in triplicate and maintaining a constant amount of Lipofectamine 2000 in each transfection.\nA series of probes and primers were used to detect the various mRNA transcripts of the genes of ENaCa and GAPDH in mouse, rat, and human cell lines. The assays were performed on an ABI 7500 instrument, according to the manufacturer's instructions. Within each experiment, the baseline was set in the exponential phase of the amplification curve, and based on the intersection point of the baselines with the amplification curve, a Ct value was assigned by the instrument. This Ct value was then assigned a QTY value based on the Standard Curve. The standard curve in the various experiments herein used 1 ng to 300 ng of RNA extracted from the same cell line used for the experimental transfections.\nAll IC50 values were calculated from the data using GraphPad Prizm software, specifically a sigmoidal, variable slope curve for simple ligand binding. Also, unless otherwise indicated, all calculations of the efficacy and potency (e.g., % knockdown) of the siNAs were done relative to a non-targeting control siNA. If reported, P-values were computed using The Students t-test, including the Welch Correction for unequal variances.\nIn all of the calculations of the % knock-down of mRNA, the calculation was made relative to the normalized level of expression of the gene of interest in the samples treated with the non-targeting control (NTC) unless otherwise indicated. The gene of interest expression level was divided by the level of expression of GAPDH or 36B4 (depending on the species) in each sample. The three replicates for each condition in each experiment were averaged and the standard deviation of those samples was calculated. The following formula was then used to calculate the % of knock-down of the gene of interest:\nThe ENaCα siNAs were designed and synthesized as described previously. The siNAs were screened in three cell lines. Human A549 cells, mouse NIH 3T3 and Rat H-4-II-E cells. The data from the screen of ENaCa siNAs in all three species is shown in Tables 3a, 3b, 4a, 4b, 5a, and 5b and a summary of the data for certain siNA molecules is presented in Table 6. Each screen was performed at 24 hrs. The decision to use this time point was based upon the degree of knockdown of the mRNA seen at that time point.", "note": "[invAb] = inverted abasic unit; m = 2'-O-methyl; r = 2'-OH (RNA); f = 2'-fluoro", "data": [{"substance": "B uGuGGcuGuGccuAcAucu TTB / AGAuGuAGGcAcAGccAcAUU (sense UGUGGCUGUGCCUACAUCUTT; antisense AGAUGUAGGCACAGCCACAUU; siRNA; sense: DNA at AGT, 2'-fluoro at CU, [invAb] at 5' end, 3' end, backbone not given here; antisense: sugars from the 5' end rrrfmfmmmfmfmmffmfmmm, backbone not given here) [Site 1384]", "values": [{"measurement": "Mean (mSCNN1A expression normalized to the level of m36B4)", "result": 0.14}, {"measurement": "Percent Reduction of the mSCNN1A mRNA relative to a non-targeting control siNA", "result": "−0.1", "unit": "%"}, {"measurement": "Avg ENaCα Expression (mSCNN1A)", "result": 3.11}, {"measurement": "Avg 36B4 Expression", "result": 20.56}]}, {"substance": "B cccuGcuGuccAcAGuGAc TTB / GUCAcuGuGGAcAGcAGGGUU (sense CCCUGCUGUCCACAGUGACTT; antisense GUCACUGUGGACAGCAGGGUU; siRNA; sense: DNA at AGT, 2'-fluoro at CU, [invAb] at 5' end, 3' end, backbone not given here; antisense: sugars from the 5' end rrrmffmfmmmfmmfmmmmmm, backbone not given here) [Site 1121]", "values": [{"measurement": "Mean (mSCNN1A expression normalized to the level of m36B4)", "result": 0.27}, {"measurement": "Percent Reduction of the mSCNN1A mRNA relative to a non-targeting control siNA", "result": "−14.5", "unit": "%"}, {"measurement": "Avg ENaCα Expression (mSCNN1A)", "result": 3.39}, {"measurement": "Avg 36B4 Expression", "result": 11.45}]}, {"substance": "B AccGcAuGAAGAcGGccuu TTB / AAGGccGucuucAuGcGGuUU (chain 1 ACCGCAUGAAGACGGCCUUTT; chain 2 AAGGCCGUCUUCAUGCGGUUU; siRNA; chain 1: DNA at AGT, 2'-fluoro at CU, [invAb] at 5' end, 3' end, backbone not given here; chain 2: sugars from the 5' end rrrmffmfffffmfmfmmfmm, backbone not given here) [Site 338]", "values": [{"measurement": "Mean (mSCNN1A expression normalized to the level of m36B4)", "result": 0.26}, {"measurement": "Percent Reduction of the mSCNN1A mRNA relative to a non-targeting control siNA", "result": "−9.5", "unit": "%"}, {"measurement": "Avg ENaCα Expression (mSCNN1A)", "result": 3.24}, {"measurement": "Avg 36B4 Expression", "result": 12.29}]}, {"substance": "B uGGGcAGccAGuGGAGccu TTB / AGGcuccAcuGGcuGcccAUU (sense UGGGCAGCCAGUGGAGCCUTT; antisense AGGCUCCACUGGCUGCCCAUU; siRNA; sense: DNA at AGT, 2'-fluoro at CU, [invAb] at 5' end, 3' end, backbone not given here; antisense: sugars from the 5' end rrrffffmffmmffmfffmmm, backbone not given here) [Site 1751]", "values": [{"measurement": "Mean (mSCNN1A expression normalized to the level of m36B4)", "result": 0.10}, {"measurement": "Percent Reduction of the mSCNN1A mRNA relative to a non-targeting control siNA", "result": 27.6, "unit": "%"}, {"measurement": "Avg ENaCα Expression (mSCNN1A)", "result": 2.85}, {"measurement": "Avg 36B4 Expression", "result": 28.97}]}, {"substance": "B cuGuGcAAccAGAAcAAAu TTB / AUUuGuucuGGuuGcAcAGUU (chain 1 CUGUGCAACCAGAACAAAUTT; chain 2 AUUUGUUCUGGUUGCACAGUU; siRNA; chain 1: DNA at AGT, 2'-fluoro at CU, [invAb] at 5' end, 3' end, backbone not given here; chain 2: sugars from the 5' end rrrfmffffmmffmfmfmmmm, backbone not given here) [Site 781]", "values": [{"measurement": "Mean (mSCNN1A expression normalized to the level of m36B4)", "result": 0.22}, {"measurement": "Percent Reduction of the mSCNN1A mRNA relative to a non-targeting control siNA", "result": 9.8, "unit": "%"}, {"measurement": "Avg ENaCα Expression (mSCNN1A)", "result": 3.50}, {"measurement": "Avg 36B4 Expression", "result": 16.49}]}, {"substance": "B GGcAGccAGuGGAGccuGu TTB / ACAGGcuccAcuGGcuGccUU (sense GGCAGCCAGUGGAGCCUGUTT; antisense ACAGGCUCCACUGGCUGCCUU; siRNA; sense: DNA at AGT, 2'-fluoro at CU, [invAb] at 5' end, 3' end, backbone not given here; antisense: sugars from the 5' end rrrmmffffmffmmffmffmm, backbone not given here) [Site 1753]", "values": [{"measurement": "Mean (mSCNN1A expression normalized to the level of m36B4)", "result": 0.12}, {"measurement": "Percent Reduction of the mSCNN1A mRNA relative to a non-targeting control siNA", "result": 9.6, "unit": "%"}, {"measurement": "Avg ENaCα Expression (mSCNN1A)", "result": 3.13}, {"measurement": "Avg 36B4 Expression", "result": 25.27}]}, {"substance": "B GGGcAGccAGuGGAGccuG TTB / CAGGcuccAcuGGcuGcccUU (sense GGGCAGCCAGUGGAGCCUGTT; antisense CAGGCUCCACUGGCUGCCCUU; siRNA; sense: DNA at AGT, 2'-fluoro at CU, [invAb] at 5' end, 3' end, backbone not given here; antisense: sugars from the 5' end rrrmffffmffmmffmfffmm, backbone not given here) [Site 1752]", "values": [{"measurement": "Mean (mSCNN1A expression normalized to the level of m36B4)", "result": 0.11}, {"measurement": "Percent Reduction of the mSCNN1A mRNA relative to a non-targeting control siNA", "result": 19.8, "unit": "%"}, {"measurement": "Avg ENaCα Expression (mSCNN1A)", "result": 3.21}, {"measurement": "Avg 36B4 Expression", "result": 29.27}]}, {"substance": "B GcAuGAAGAcGGccuucuG TTB / CAGAAGGccGuCuucAuGcUU (chain 1 GCAUGAAGACGGCCUUCUGTT; chain 2 CAGAAGGCCGUCUUCAUGCUU; siRNA; chain 1: DNA at AGT, 2'-fluoro at CU, [invAb] at 5' end, 3' end, backbone not given here; chain 2: sugars from the 5' end rrrmmmmffmfmfffmfmfmm, backbone not given here) [Site 341]", "values": [{"measurement": "Mean (mSCNN1A expression normalized to the level of m36B4)", "result": 0.23}, {"measurement": "Percent Reduction of the mSCNN1A mRNA relative to a non-targeting control siNA", "result": 3.9, "unit": "%"}, {"measurement": "Avg ENaCα Expression (mSCNN1A)", "result": 3.17}, {"measurement": "Avg 36B4 Expression", "result": 13.56}]}, {"substance": "B GcuGuGccuAcAucuucuA TTB / UAGAAGAuGuAGGcAcAGcUU (sense GCUGUGCCUACAUCUUCUATT; antisense UAGAAGAUGUAGGCACAGCUU; siRNA; B caps on sense ends, letter-case modifications not given here, further chemistry not given here) [Site 1388]", "values": [{"measurement": "Mean (mSCNN1A expression normalized to the level of m36B4)", "result": 0.04}, {"measurement": "Percent Reduction of the mSCNN1A mRNA relative to a non-targeting control siNA", "result": 73.4, "unit": "%"}, {"measurement": "Avg ENaCα Expression (mSCNN1A)", "result": 0.90}, {"measurement": "Avg 36B4 Expression", "result": 24.18}, {"measurement": "IC50", "setting": "mouse cell line, dose response, read-out: Mouse IC50 (potency of ENaCα mRNA knockdown)", "result": 1.9, "unit": "nM"}, {"measurement": "Mouse % KD (efficacy of ENaCα mRNA knockdown)", "setting": "mouse cell line, summary", "result": 73, "unit": "%"}]}, {"substance": "B AGuGuGGcuGuGccuAcAu TTB / AUGuAGGcAcAGccAcAcuUU (sense AGUGUGGCUGUGCCUACAUTT; antisense AUGUAGGCACAGCCACACUUU; siRNA; sense: DNA at AGT, 2'-fluoro at CU, [invAb] at 5' end, 3' end, backbone not given here; antisense: sugars from the 5' end rrrfmmmfmfmmffmfmffmm, backbone not given here) [Site 1382]", "values": [{"measurement": "Mean (mSCNN1A expression normalized to the level of m36B4)", "result": 0.21}, {"measurement": "Percent Reduction of the mSCNN1A mRNA relative to a non-targeting control siNA", "result": 10.7, "unit": "%"}, {"measurement": "Avg ENaCα Expression (mSCNN1A)", "result": 2.94}, {"measurement": "Avg 36B4 Expression", "result": 13.77}]}]}
